Data reported in patent publication US20070082883A1, “HIV protease inhibitors” (THE BOARD OF TRUSTEES OF THE UNIVERSITY OF ILLINOIS, priority 2002, published 2007).
Non-standard residues stand in square brackets, D forms with d. Residues, ends and D or L forms follow the SMILES beside them. Phe(4-NO2) = N[C@@H](Cc1ccc([N+](=O)[O-])cc1)C(=O)O; Nle = CCCC[C@H](N)C(=O)O; 2Abz = Nc1ccccc1C(=O)O

Assays:
HIV-1 protease [1] = target: T1, HIV-1 protease (Human immunodeficiency virus type 1 group M subtype B, UniProt P04585); assay: Kinetic measurements of the cleavage of anthranilyl fluorogenic substrate by HIV-1 protease; format: biochemical; details: purified refolded HIV-1 protease; read-out: Michaelis constant for the substrate Km
T1 construct: made in house; host or cells: E. coli BL21 (dE3)pLysS, pET30a vector
Text: The HIV-1 protease gene was subcloned into the pET30a vector (Novagen) and then transformed into BL21 (dE3)pLysS cells for protein expression. Protein expression and purification were followed according to Tang's procedure (Hong et al., Biochemistry, 1996, 35, 10627-10633). […] The inclusion body containing some bacterial proteins was thoroughly washed by using TRITON X-100, solubilized in BM urea and passed through the Q-sepharose column to remove the bacterial proteins which interfered with subsequent refolding steps. HIV-1 protease was refolded from the urea to an active form by dialysis. As a final step, gel filtration chromatography was used to remove impurities after refolding. Activities of purified HIV-1 protease were examined using a fluorogenic substrate, 2-aminobenzoyl-Thr-Ile-Nle-Phe(pNO2)-Gln-Arg-NH2 (Novabiochem). […] Using the first rate equation, kcat is calculated. In the condition of So<<Km, v=Eo(kcat/Km)So, where Eo is the total enzyme concentration, and So is the substrate concentrate.

HIV-1 protease [2] = target: T1, HIV-1 protease; assay: HIV-1 Protease Inhibition Assay; format: biochemical; details: fluorogenic substrate assay
Procedure, shortened: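 Recombinant HIV-1 protease expressed in E. coli BL21(DE3)pLysS, refolded from urea and purified. Activity followed with fluorogenic substrate 2-aminobenzoyl-Thr-Ile-Nle-Phe(pNO2)-Gln-Arg-NH2 under So<<Km.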

## CCCC[C@H](NC(=O)[C@@H](NC(=O)[C@@H](NC(=O)c1ccccc1N)[C@@H](C)O)[C@@H](C)CC)C(=O)N[C@@H](Cc1ccc([N+](=O)[O-])cc1)C(=O)N[C@@H](CCC(N)=O)C(=O)N[C@@H](CCCNC(=N)N)C(N)=O [2-aminobenzoyl-Thr-Ile-Nle-Phe(pNO2)-Gln-Arg-NH2] (H-[2Abz]TI[Nle][Phe(4-NO2)]QR-NH2)
HIV-1 protease [1]
  Km: 4.5 µM

## CC(C)CN(C[C@@H](O)[C@H](Cc1ccccc1)NC(=O)OC1CC2CCO[C@@H]2C1)S(=O)(=O)c1ccc(O)c(O)c1 (stereo partly drawn) [Compound 88]
HIV-1 protease [2]
  Ki: 1.2 nM
other
  melting point: 80 to 82 °C

## CNCc1ccc(S(=O)(=O)N(CC(C)C)C[C@@H](O)[C@H](Cc2ccccc2)NC(=O)OC2CO[C@H]3OCCC23)cc1 (stereo partly drawn) [Compound 119]
HIV-1 protease [2]
  IC50: 3.5 nM
  Ki: 1.1 nM
other
  melting point: 57 to 62 °C
